Measurements: US20030157516A1, “G protein coupled receptor” (priority 2000, published 2003)
“And” between values parts separate entries of the source, which are not always exact repeats. Equal values may be shown once. Read-outs that look alike come from different tables or passages of the source.

Experiments:
wild type CHO cells = assay: [35S]GTPγS binding on wild type CHO membranes; type: biochemical
Procedure: a) Methods—Determination of [^35S ]GTPγS binding to the G-proteins was carried out according to a modified procedure of Lazareno (Methods Mol. Biol., 83:107-116, 1997). These experiments were performed for a first functional evaluation of the receptor on the level of a membrane preparation. […] For testing agonistic activity, 175 μl of diluted membranes was pre-incubated in the buffer described above together with 25 μl of buffer and 25 μl of varying concentrations of the compound in a total volume of 225 μl. After a 20 minute pre-incubation period at 30° C., 25 μl of [^35S]GTPγS was added to a final concentration of 0.25 nM and the assay mixtures were further incubated for 20 minutes at 30° C. […] The amount of bound radioactivity on the filter unit was determined after drying of the filters and scintillant addition (Microscint-O; Packard Company) by liquid scintillation counting. Basal [^35S]GTPγS binding was measured in absence of compounds. Stimulation by agonist was calculated as the percentage increase above basal levels. The sigmoid agonist concentration-response curves were analyzed by non-linear regression using the GraphPad Prism program. The different concentration points were run in duplicates and the reported data were retrieved from independent experiments.

[1] = molecular target: T1, adenine binding rat receptor (Rattus norvegicus, UniProt Q7TN49); assay: [3H]adenine competition binding on CHO membranes transiently transfected; settings: transfected cells, 15 nM [3H]adenine
T1 construct: expressed in transfected cells; host or cells: CHO cells, transient, lipofectamine PLUS
T1 sequence (Q7TN49 1-304): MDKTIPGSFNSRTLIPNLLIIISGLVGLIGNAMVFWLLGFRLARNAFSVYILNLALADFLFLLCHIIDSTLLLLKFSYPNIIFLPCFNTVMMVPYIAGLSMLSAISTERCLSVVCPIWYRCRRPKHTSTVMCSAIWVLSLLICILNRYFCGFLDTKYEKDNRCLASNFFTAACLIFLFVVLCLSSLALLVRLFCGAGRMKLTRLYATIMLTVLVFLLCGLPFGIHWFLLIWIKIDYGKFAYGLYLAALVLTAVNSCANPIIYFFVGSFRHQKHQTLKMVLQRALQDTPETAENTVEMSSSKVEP
Procedure: The membranes were prepared as total particulate fractions. The cell lines were cultured to […] on 145 mm petri dishes and treated with 5 mM sodium butyrate, 24 hours before collection. The culturing medium was removed and the cells were washed twice with ice cold phosphate buffered saline (PBS without Ca^2+ and Mg^2+), scraped from the plates in 50 mM Tris-HCl buffer, pH 7.4, and collected by centrifugation (10 minutes at 16,000 RPM at 4° C.). The cell pellet was re-suspended in hypotonic 5 mM Tris-HCl buffer, pH 7.4, and homogenized with an Ultra Turrax homogenizer (Janker Kunkel, Germany). The homogenate was centrifuged at 18,000 RPM for 20 minutes at 4° C. The final pellet was re-suspended in 50 mM Tris-HCl buffer, pH 7.4 and stored in aliquots at −70° C. A protein determination was performed using the Bradford protein assay (Biorad, Germany) using bovine serum albumin (BSA) as standard.
A) Methods—[3H]Adenine binding experiments were performed to characterize wild type cell lines before transfection as well as transiently and permanently transfected cell lines. Membranes were thawed on ice and diluted in 50 mM HEPES buffer, pH 7.4 supplemented with 10 mM MgCl2 and 1 mM EGTA. […] Both assays were carried out in a final volume of 500 μl, using 18 μg of membrane protein for the transfected CHO cells and 30 μg of membrane protein for the wild type CHO cells for the saturation binding. For competition binding experiments, 15 and 50 μg of membrane protein was used for the transfected and wild type cells, respectively. The reaction was terminated by rapid filtration through Whatman GF/B filters using a Brandel multi-channel cell harvester (96 wells). The filters were washed three times with 3 ml ice cold 50 mM HEPES buffer, pH 7.4, transferred to liquid scintillation vials and 3 ml of scintillation fluid (Ultima Gold MV, Packard, Netherlands) was added. Samples were counted in a β-scintillation counter after at least 6 hours to permit the glass fiber filters to become uniformly translucent.

[2] = molecular target: T1, adenine binding rat receptor; assay: [35S]GTPγS binding on CHO membranes transiently transfected; type: biochemical; settings: for % stim.: increase above basal
Procedure: a) Methods—Determination of [^35S ]GTPγS binding to the G-proteins was carried out according to a modified procedure of Lazareno (Methods Mol. Biol., 83:107-116, 1997). These experiments were performed for a first functional evaluation of the receptor on the level of a membrane preparation.
The assay mixture contained 10 and 35 μg of membrane protein for the transfected and wild type CHO cells, respectively.
For testing agonistic activity, 175 μl of diluted membranes was pre-incubated in the buffer described above together with 25 μl of buffer and 25 μl of varying concentrations of the compound in a total volume of 225 μl. After a 20 minute pre-incubation period at 30° C., 25 μl of [^35S]GTPγS was added to a final concentration of 0.25 nM and the assay mixtures were further incubated for 20 minutes at 30° C. Bound and free [^35S]GTPγS were separated by rapid filtration over an UniFilter™-96, GF/B™ under reduced pressure using Filtermate 196 filtration (Packard Company (Netherlands). The amount of bound radioactivity on the filter unit was determined after drying of the filters and scintillant addition (Microscint-O; Packard Company) by liquid scintillation counting.
Basal [^35S]GTPγS binding was measured in absence of compounds. Stimulation by agonist was calculated as the percentage increase above basal levels. The sigmoid agonist concentration-response curves were analyzed by non-linear regression using the GraphPad Prism program. The different concentration points were run in duplicates and the reported data were retrieved from independent experiments.

[3] = transiently transfected CHO membranes
[4] = transiently transfected cells, mean of n experiments
[5] = transiently transfected cells, single experiments
[6] = transiently transfected cells, single experiments, read-out: pEC50 (converted)

## Nc1ncnc2c1ncn2[C@@H]1O[C@H](COP(=O)(O)O)[C@@H](O)[C@H]1O [AMP]
Wild type CHO cells; mean of n experiments
  % stim.: 0%
Wild type CHO cells; single experiments
  % stim.: 0%
  pEC50: <4
[1]; mean of n experiments
  Ki: 24.5 µM
  pIC50: 4.41
[1]; single experiments
  Ki: 31.9 µM and 20.8 µM and 21.2 µM
  pIC50: 4.29 and 4.47 and 4.46
[2]; [3]
  stimulation of the receptor ([35S]GTPγS binding): stimulated the receptor partially with a much lower potency
[2]; [4]
  % stim.: 95%
  pEC50: 4.35

## Nc1ncnc2nc[nH]c12 [Adenine, adenine]
Wild type CHO cells; mean of n experiments
  % stim.: 0%
Wild type CHO cells; single experiments
  % stim.: 0%
  pEC50: <5
[1]; mean of n experiments
  IC50: 0.0282 µM
  Ki: 0.018 µM
[1]; single experiments
  IC50: 0.0174 µM and 0.0363 µM and 0.0309 µM and 0.0331 µM
  Ki: 0.011 µM and 0.022 µM and 0.019 µM and 0.02 µM
[2]; transiently transfected CHO membranes, read-out: mean EC50
  EC50: 0.112 µM
[2]; [4]
  % stim.: 148%
[2]; transiently transfected cells, mean of n experiments, listed as adenine
  % stim.: 150%
[2]; [5]
  % stim.: 177% and 199% and 106% and 111%
[2]; [6]
  EC50: 0.0955 µM and 0.115 µM and 0.132 µM

## Cn1cnc2ncnc-2c1N [1-Methyladenine]
Wild type CHO cells; mean of n experiments
  % stim.: 0%
Wild type CHO cells; single experiments
  % stim.: 0%
  pEC50: <4
[1]; mean of n experiments
  IC50: 7.08 µM
  Ki: 4.39 µM
[1]; single experiments
  IC50: 6.17 µM and 9.77 µM and 5.75 µM
  Ki: 3.79 µM and 6.06 µM and 3.57 µM
[2]; [3]
  stimulation of the receptor ([35S]GTPγS binding): stimulated the receptor partially with a much lower potency
[2]; [4]
  % stim.: 129%
[2]; [5]
  % stim.: 90% and 135% and 161%
[2]; transiently transfected cells, mean of n experiments, read-out: pEC50 (converted)
  EC50: 15.1 µM
[2]; [6]
  EC50: 16.2 µM and 12 µM and 17.8 µM
